Patent publication US20120178738A1, “DIBENZO [B,F] [1,4]OXAZAPINE COMPOUNDS” (ARYX THERAPEUTICS, INC., priority 2007, published 2012)
Read-outs that look alike come from different tables or passages of the source.

Legend:
human 5HT1A receptors = molecular target: T1, human 5HT1A receptors (Homo sapiens, UniProt P08908); assay: h5-HT1A receptor radioligand binding ([3H]8OH-DPAT); details: pKi reported on a scale of 1 through 5
T1 construct: expressed in transfected cells; host or cells: Chinese hamster ovary cells (membranes)
T1 sequence (P08908 1-422): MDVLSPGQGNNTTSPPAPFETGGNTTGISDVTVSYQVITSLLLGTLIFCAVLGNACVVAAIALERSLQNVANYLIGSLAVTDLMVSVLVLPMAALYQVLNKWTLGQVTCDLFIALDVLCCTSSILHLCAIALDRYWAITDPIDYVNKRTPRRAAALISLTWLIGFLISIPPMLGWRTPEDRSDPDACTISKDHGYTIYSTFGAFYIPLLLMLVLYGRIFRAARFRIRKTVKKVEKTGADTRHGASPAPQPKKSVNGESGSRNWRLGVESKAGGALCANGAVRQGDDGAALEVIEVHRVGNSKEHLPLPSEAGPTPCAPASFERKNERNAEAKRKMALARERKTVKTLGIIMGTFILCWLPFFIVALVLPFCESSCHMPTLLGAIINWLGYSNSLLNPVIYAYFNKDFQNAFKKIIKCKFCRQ
In short: (§1)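 Read-out was radioligand retained after filtration, corrected for nonspecific binding determined with a blocking compound. Receptor-containing membranes or tissues had been incubated at equilibrium with one radioligand concentration and varying unlabelled compound.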

[1] = molecular target: T2, human D2L dopamine receptors (Homo sapiens, UniProt P14416); assay: hD2L receptor radioligand binding ([3H]spiperone)
T2 construct: expressed in transfected cells; host or cells: insect Sf9 cells (membranes)
T2 sequence (P14416 whole entry): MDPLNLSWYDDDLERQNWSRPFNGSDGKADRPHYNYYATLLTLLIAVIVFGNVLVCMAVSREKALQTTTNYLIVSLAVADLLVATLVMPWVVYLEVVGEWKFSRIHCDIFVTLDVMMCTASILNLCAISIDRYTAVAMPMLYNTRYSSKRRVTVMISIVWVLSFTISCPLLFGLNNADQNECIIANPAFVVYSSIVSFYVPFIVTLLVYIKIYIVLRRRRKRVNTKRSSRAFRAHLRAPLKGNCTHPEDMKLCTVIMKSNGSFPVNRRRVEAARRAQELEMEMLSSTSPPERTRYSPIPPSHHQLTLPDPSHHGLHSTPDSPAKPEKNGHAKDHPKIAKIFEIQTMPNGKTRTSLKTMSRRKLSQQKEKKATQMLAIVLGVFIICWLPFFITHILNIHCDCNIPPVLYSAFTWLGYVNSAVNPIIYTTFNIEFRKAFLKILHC
Procedure: (§2) Consistent with standard competition radioligand binding assays, the methodology was based on displacement of radioligand from tissues (or cell lines) bearing the receptor of interest (Cheng, Y. and Prusoff, W. H. (1973). Biochem. Pharmacol. 22, 3099-3108). The measurements were based on the binding of a single concentration of radiolabeled ligand in the presence of various concentrations of unlabeled ligand.
(§3) Tissues (or cellular plasma membrane fractions) were incubated in the presence of radioligand at equilibrium and in the presence of a range of concentrations of the test compounds (which were non-radiolabeled), and the displaced radioligand was separated from the membranes by filtration. Nonspecific binding was assessed by measuring displacement of the radioligand in the presence of a compound known to block binding of the radioligand to the receptor. Finally, the concentration-response relationship for radioligand displacement (corrected for non-specific binding) was used to assess binding of the test compound to the receptor.

human 5HT2C receptors = molecular target: T3, human 5HT2C receptors (Homo sapiens, UniProt P28335); assay: h5-HT2C receptor radioligand binding ([3H]Mesulergine); details: pKi reported on a scale of 1 through 5
T3 construct: expressed in transfected cells; host or cells: human embryo kidney cells (membranes)
T3 sequence (P28335 33-458): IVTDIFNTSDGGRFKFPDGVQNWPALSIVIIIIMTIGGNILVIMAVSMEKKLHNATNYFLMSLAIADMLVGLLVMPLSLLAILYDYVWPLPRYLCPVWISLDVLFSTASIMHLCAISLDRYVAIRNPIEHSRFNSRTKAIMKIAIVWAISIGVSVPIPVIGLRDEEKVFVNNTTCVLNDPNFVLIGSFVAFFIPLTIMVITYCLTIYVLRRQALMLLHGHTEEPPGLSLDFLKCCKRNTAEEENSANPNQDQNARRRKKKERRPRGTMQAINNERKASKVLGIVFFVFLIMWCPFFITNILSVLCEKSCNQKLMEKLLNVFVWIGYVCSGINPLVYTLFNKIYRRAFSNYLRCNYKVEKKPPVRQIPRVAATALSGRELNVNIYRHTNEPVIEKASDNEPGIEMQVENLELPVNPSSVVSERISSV
In short: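 Test compound affinity was derived from concentration-dependent displacement of fixed [3H]mesulergine at equilibrium, after subtracting nonspecific binding measured with a reference blocker. Bound and free radioligand were separated by filtration of tissue or plasma-membrane preparations.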

[2] = molecular target: T4, human D2s dopamine receptors (Homo sapiens, UniProt P14416); assay: hD2S receptor radioligand binding ([3H]spiperone); details: pKi reported on a scale of 1 through 5
T4 construct: expressed in transfected cells; host or cells: Chinese hamster ovary cells (membranes)
T4 sequence (P14416 1-414 isoform P14416-2): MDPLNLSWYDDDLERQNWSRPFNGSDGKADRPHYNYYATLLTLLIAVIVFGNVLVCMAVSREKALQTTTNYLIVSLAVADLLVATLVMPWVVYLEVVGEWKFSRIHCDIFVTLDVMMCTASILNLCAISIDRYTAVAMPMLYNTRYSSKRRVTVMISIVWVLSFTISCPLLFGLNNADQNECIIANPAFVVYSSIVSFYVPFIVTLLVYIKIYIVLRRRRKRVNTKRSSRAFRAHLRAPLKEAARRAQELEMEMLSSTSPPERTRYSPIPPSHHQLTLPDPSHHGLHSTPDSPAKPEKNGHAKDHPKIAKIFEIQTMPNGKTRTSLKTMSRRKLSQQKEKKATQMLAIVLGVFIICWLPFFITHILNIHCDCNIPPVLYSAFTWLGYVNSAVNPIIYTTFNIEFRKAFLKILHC
In short: as §1

5-HT2A receptor = molecular target: T5, 5-HT2A receptor (Rattus norvegicus, UniProt P14842); assay: cell-based
T5 construct: Eight strips of tissue (0.5 cm long) were cut. and were mounted in 10 ml organ baths; tissue Charles River Laboratories; host or cells: rat aorta strips, endothelium removed
T5 sequence (P14842 whole entry): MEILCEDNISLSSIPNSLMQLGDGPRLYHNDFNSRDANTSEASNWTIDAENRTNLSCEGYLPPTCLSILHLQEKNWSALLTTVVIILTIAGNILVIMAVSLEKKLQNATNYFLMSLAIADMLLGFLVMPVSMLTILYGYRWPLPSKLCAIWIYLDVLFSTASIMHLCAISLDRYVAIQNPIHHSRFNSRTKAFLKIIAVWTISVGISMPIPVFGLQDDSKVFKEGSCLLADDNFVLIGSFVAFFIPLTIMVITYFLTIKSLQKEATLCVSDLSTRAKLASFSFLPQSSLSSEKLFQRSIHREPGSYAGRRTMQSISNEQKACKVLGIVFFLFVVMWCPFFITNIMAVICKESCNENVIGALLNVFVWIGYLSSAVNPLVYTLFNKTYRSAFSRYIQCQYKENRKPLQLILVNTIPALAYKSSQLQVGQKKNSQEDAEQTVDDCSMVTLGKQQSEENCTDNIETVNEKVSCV
In short: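 Agonist EC50 and antagonist pKB or pA2 values come from curves fitted by Parker–Waud and from EC50 concentration-ratios with versus without antagonist. Tissue: rat aorta strips, endothelium removed, 37° C Krebs pH 7.4 with 95% O2/5% CO2, 2 g tension; response as % of 5-HT maximum.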

human M3 receptors = molecular target: T6, human M3 receptors (Homo sapiens, UniProt P20309); assay: hM3 receptor radioligand binding ([3H]NMS)
T6 construct: expressed in transfected cells; host or cells: Chinese hamster ovary cells (membranes)
T6 sequence (P20309 whole entry): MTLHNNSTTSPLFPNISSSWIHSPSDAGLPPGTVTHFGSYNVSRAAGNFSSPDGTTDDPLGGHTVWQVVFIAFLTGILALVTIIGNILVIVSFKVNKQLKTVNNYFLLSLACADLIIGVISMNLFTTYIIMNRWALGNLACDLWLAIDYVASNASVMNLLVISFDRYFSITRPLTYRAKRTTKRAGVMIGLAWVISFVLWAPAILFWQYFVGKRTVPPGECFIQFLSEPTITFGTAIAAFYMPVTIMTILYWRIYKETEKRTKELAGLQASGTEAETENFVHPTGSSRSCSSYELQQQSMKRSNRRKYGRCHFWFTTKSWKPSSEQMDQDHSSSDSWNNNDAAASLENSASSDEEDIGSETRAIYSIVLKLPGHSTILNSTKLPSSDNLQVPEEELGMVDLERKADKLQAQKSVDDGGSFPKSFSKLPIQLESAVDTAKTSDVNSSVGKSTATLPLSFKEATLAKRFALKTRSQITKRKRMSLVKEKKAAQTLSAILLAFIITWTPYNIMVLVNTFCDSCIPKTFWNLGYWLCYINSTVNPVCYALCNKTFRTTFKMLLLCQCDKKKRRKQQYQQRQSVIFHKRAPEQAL
Procedure: as §2, §3

human 5HT7 receptors = molecular target: T7, human 5HT7 receptors (Homo sapiens, UniProt P34969); assay: h5-HT7 receptor radioligand binding ([3H]5-CT)
T7 construct: expressed in transfected cells; host or cells: Chinese hamster ovary cells (membranes)
T7 sequence (P34969 whole entry): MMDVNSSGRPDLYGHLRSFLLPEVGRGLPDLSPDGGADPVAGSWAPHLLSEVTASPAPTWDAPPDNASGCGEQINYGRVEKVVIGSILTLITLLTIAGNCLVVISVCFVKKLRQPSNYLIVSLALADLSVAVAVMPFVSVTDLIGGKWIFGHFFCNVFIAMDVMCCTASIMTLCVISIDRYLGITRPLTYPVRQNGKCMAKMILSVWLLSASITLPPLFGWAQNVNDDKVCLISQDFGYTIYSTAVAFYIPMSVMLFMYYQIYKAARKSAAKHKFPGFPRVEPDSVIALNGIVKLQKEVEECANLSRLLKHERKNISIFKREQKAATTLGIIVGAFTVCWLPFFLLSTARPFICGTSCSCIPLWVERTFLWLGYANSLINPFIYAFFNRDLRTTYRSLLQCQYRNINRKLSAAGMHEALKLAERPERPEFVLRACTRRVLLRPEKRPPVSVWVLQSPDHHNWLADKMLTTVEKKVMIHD
Procedure: as §2, §3

human H1 receptors = molecular target: T8, human H1 receptors (Homo sapiens, UniProt P35367); assay: hH1 receptor radioligand binding ([3H]Pyrilamine); details: pKi reported on a scale of 1 through 5
T8 construct: expressed in transfected cells; host or cells: Chinese hamster ovary cells (membranes)
T8 sequence (P35367 whole entry): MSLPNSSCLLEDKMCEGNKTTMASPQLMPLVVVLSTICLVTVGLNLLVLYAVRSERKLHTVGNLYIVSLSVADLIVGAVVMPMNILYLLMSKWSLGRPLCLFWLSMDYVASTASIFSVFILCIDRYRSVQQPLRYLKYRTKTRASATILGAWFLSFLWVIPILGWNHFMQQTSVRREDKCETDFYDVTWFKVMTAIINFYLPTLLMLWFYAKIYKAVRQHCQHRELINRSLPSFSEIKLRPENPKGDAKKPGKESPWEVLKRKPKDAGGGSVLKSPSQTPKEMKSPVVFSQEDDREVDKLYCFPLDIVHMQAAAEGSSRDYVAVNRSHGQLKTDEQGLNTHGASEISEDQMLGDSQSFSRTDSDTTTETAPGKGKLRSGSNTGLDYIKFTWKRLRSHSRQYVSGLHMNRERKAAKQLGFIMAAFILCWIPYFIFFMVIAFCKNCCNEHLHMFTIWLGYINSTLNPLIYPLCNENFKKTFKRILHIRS
In short: as §1

human M1 receptors = molecular target: T9, human M1 receptors (Homo sapiens, UniProt P11229); assay: hM1 receptor radioligand binding ([3H]NMS); details: pKi reported on a scale of 1 through 5
T9 construct: expressed in transfected cells; host or cells: Chinese hamster ovary cells (membranes)
T9 sequence (P11229 1-460): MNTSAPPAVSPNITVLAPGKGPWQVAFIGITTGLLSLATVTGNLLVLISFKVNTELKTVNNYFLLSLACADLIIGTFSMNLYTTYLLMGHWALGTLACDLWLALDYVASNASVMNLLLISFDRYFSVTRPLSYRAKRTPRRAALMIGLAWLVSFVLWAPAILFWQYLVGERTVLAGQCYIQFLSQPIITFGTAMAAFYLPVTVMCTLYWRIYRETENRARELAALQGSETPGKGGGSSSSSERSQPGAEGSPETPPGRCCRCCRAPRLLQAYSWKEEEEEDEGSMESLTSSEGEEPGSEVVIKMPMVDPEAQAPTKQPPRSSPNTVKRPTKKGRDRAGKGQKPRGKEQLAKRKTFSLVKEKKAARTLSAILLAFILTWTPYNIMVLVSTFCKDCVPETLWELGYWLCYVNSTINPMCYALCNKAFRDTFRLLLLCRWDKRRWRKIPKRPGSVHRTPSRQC
In short: as §1

[3] = pKi reported on a scale of 1 through 5, read-out: D2L (pKi) (converted)
[4] = read-out: 5HT2A (pKb) (converted)
[5] = pKi reported on a scale of 1 through 5, read-out: M3 (pKi) (converted)
[6] = pKi reported on a scale of 1 through 5, read-out: 5HT7 (pKi) (converted)

Structure (SMILES) | Ki (human 5HT1A receptors) [nM] | Ki [1, 3] [nM] | Ki (human 5HT2C receptors) [nM] | Ki [2] [nM] | Kb (5-HT2A receptor; [4]) [nM] | Ki (human M3 receptors; [5]) [nM] | Ki (human 5HT7 receptors; [6]) [nM] | Ki (human H1 receptors) [nM] | Ki (human M1 receptors) [nM] | Kb (5-HT2A receptor; pKb reported on a scale of 1 through 5, read-out: 5HT2A (pKb) (converted)) [nM] | Ki [1] [nM] | Kb (5-HT2A receptor) [nM] | Ki (human M3 receptors) [nM] | Ki (human 5HT7 receptors) [nM]
COc1ccc(NC(=O)C[C@H]2CN(C3=Nc4cc(Cl)ccc4Oc4ccccc43)CCN2)cn1 [FP, (S,E)-2-(4-(8-chlorodibenzo[b,f][1,4]oxazepin-11-yl)piperazin-2-yl)-N-(6-methoxypyridin-3-yl)acetamide] | ≤ 9.77 | 631 to 2450 | 10 to 97.7 | 631 to 2450 | 10 to 30.9 | > 10000 | 1580 to 3890 | 10 to 97.7 | 5010 to 9770 | – | – | – | – | –
CN(CCO)C(=O)C[C@H]1CN(C2=Nc3cc(Cl)ccc3Oc3ccccc32)CCN1 [FO, (S,E)-2-(4-(8-chlorodibenzo[b,f][1,4]oxazepin-11-yl)piperazin-2-yl)-N-(2-hydroxyethyl)-N-methylacetamide] | 100 to 977 | 2510 to 9770 | 10 to 97.7 | 2510 to 9770 | 10 to 30.9 | > 10000 | 631 to 1550 | 10 to 97.7 | 2510 to 4900 | – | – | – | – | –
CCCN(CCO)C(=O)C[C@H]1CN(C2=Nc3cc(Cl)ccc3Oc3ccccc32)CCN1 [EZ, (S,E)-2-(4-(8-chlorodibenzo[b,f][1,4]oxazepin-11-yl)piperazin-2-yl)-N-(2-hydroxyethyl)-N-propylacetamide] | ≤ 9.77 | 2510 to 9770 | 10 to 97.7 | 2510 to 9770 | 31.6 to 97.7 | > 10000 | 631 to 1550 | 10 to 97.7 | > 10000 | – | – | – | – | –
COC(=O)CC1CN(C2=Nc3cc(C(F)(F)F)ccc3Oc3ccccc32)CCN1 (stereo not drawn) [DQ, (E)-methyl 2-(4-(8-(trifluoromethyl)dibenzo[b,f][1,4]oxazepin-11-yl)piperazin-2-yl)acetate] | 100 to 977 | 2510 to 9770 | 100 to 977 | 2510 to 9770 | – | > 10000 | 3980 to 9770 | 1000 to 9770 | > 10000 | > 100 | – | – | – | –
O=C(C[C@H]1CN(C2=Nc3cc(Cl)ccc3Oc3ccccc32)CCN1)NCC(F)F [FQ, (S,E)-2-(4-(8-chlorodibenzo[b,f][1,4]oxazepin-11-yl)piperazin-2-yl)-N-(2,2-difluoroethyl)acetamide] | 10 to 97.7 | 631 to 2450 | 10 to 97.7 | 631 to 2450 | 10 to 30.9 | > 10000 | 631 to 1550 | 10 to 97.7 | 5010 to 9770 | – | – | – | – | –
COC(=O)C[C@H]1CN(C2=Nc3cc(Cl)ccc3Oc3ccccc32)CCN1 [Compound N, (S,E)-methyl 2-(4-(8-chlorodibenzo[b,f][1,4]oxazepin-11-yl)piperazin-2-yl)acetate] | 100 to 977 | 631 to 2450 | 10 to 97.7 | 631 to 2450 | 3.16 to 9.77 | > 10000 | 631 to 1550 | 100 to 977 | 5010 to 9770 | – | – | – | – | –
O=C(C[C@H]1CN(C2=Nc3cc(Cl)ccc3Oc3ccccc32)CCN1)NCCCO [Compound FS, (S,E)-2-(4-(8-chlorodibenzo[b,f][1,4]oxazepin-11-yl)piperazin-2-yl)-N-(3-hydroxypropyl)acetamide] | 10 to 97.7 | 631 to 2450 | 10 to 97.7 | 631 to 2450 | 3.16 to 9.77 | > 10000 | < 617 | ≤ 9.77 | > 10000 | – | – | – | – | –
O=C(C[C@H]1CN(C2=Nc3cc(Cl)ccc3Oc3ccccc32)CCN1)O[C@H]1CN2CCC1CC2 [DT, (R)-quinuclidin-3-yl 2-((S)-4-((E)-8-chlorodibenzo[b,f][1,4]oxazepin-11-yl)piperazin-2-yl)acetate] | 100 to 977 | – | 100 to 977 | > 10000 | – | – | – | 1000 to 9770 | 5010 to 9770 | – | > 10000 | > 100 | > 10000 | > 10000
CN1CCN(C2=Nc3cc(Cl)ccc3Oc3ccccc32)C[C@@H]1CC(=O)OC1CCCC1 [DX, (S,E)-cyclopentyl 2-(4-(8-chlorodibenzo[b,f][1,4]oxazepin-11-yl)-1-methylpiperazin-2-yl)acetate] | 1000 to 9770 | 2510 to 9770 | 100 to 977 | 2510 to 9770 | 10 to 30.9 | > 10000 | > 10000 | 100 to 977 | 5010 to 9770 | – | – | – | – | –
C[C@@H](O)CNC(=O)C[C@H]1CN(C2=Nc3cc(Cl)ccc3Oc3ccccc32)CCN1 [FB, 2-((S)-4-((E)-8-chlorodibenzo[b,f][1,4]oxazepin-11-yl)piperazin-2-yl)-N-((R)-2-hydroxypropyl)acetamide] | 10 to 97.7 | 631 to 2450 | 10 to 97.7 | 631 to 2450 | < 3.09 | > 10000 | 631 to 1550 | 10 to 97.7 | > 10000 | – | – | – | – | –
COC(=O)C[C@H]1CN(C2=Nc3cc(Cl)ccc3Oc3ccccc32)CCN1C [DW, (S,E)-methyl 2-(4-(8-chlorodibenzo[b,f][1,4]oxazepin-11-yl)-1-methylpiperazin-2-yl)acetate] | 1000 to 9770 | 2510 to 9770 | 100 to 977 | > 10000 | 31.6 to 97.7 | > 10000 | 3980 to 9770 | 100 to 977 | ≤ 1230 | – | – | – | – | –
